Data reported in patent US20110039721A1, “METHOD FOR PREDICTION ABOUT CARCINOGENICITY OF SUBSTANCE IN RODENT” (Chemicals Evaluation and Research Institute, priority 2007, published 2011).

Tested on: mRNA expressed from the genes (A) to (D) in rat liver
Experiment: Behavior of genes (mRNA expression level, oligo-DNA microarray) in rat liver after 28-day oral administration
Format: in vivo
Description: A test solution was prepared by dissolving each of the carcinogens and the non-carcinogens shown in Tables 2 to 6 in the corresponding solvent shown in Tables 2 to 6. Each of the thus prepared test solutions and the solvents used for the preparation was administered by oral gavage to rats in each group. As the rats, male rats (F344 SPF rats) at 5 weeks of age obtained from Charles River Laboratories Japan, Inc. were used. The animals were divided into groups, each containing four individuals. The volume of the solvent administered to the vehicle control group was set to the same volume as that of the test solution administered to the carcinogen administration group or the non-carcinogen administration group. The administration of the test solution or the solvent was performed once daily for 28 days. Apiece was excised from the liver of each of the rats after a lapse of 28 days from the initiation of the administration, and the total RNA was extracted and purified.
The expression level of mRNA was compared between each of the chemical substance administration groups and the corresponding vehicle control group, and genes that satisfy the requirements described in (A) to (D) were selected, respectively.
The case where the expression level of mRNA in the carcinogen administration group or the non-carcinogen administration group is 1.5 times or more or 1/1.5 or less of the expression level of the corresponding mRNA expressed in the control group was determined to be significant. In this connection, the determination as to whether or not the change is significant was performed by taking into consideration the direction of increase or decrease in the expression level. In the case where the direction of increase or decrease is different as compared with the case where another carcinogen was administered, the change was determined to be not significant.

[1] = gene group (A), Unigene No. Rn.167075, mRNA vs vehicle control group
[2] = gene group (C), Unigene No. Rn.120914, mRNA vs vehicle control group
[3] = (C), Unigene Rn.120914, defined direction +, rat liver, oral once daily 28 days

Clc1c(Cl)c(Cl)c(Cl)c(Cl)c1Cl [TS020, Hexachlorobenzene]
Behavior of gene caused by administration of chemical substance, Gene No. 4846 (gene group (A), Unigene No. Rn.144554, mRNA vs vehicle control group): −
Behavior of gene caused by administration of chemical substance, Gene No. 2026 [1]: −
Behavior of gene caused by administration of chemical substance, Gene No. 4218 [1]: −
Behavior of gene caused by administration of chemical substance, Gene No. 6182 (gene group (A), Unigene No. Rn.5834, mRNA vs vehicle control group): +
Behavior of gene caused by administration of chemical substance, Gene No. 5600 (gene group (A), Unigene No. Rn.9836, mRNA vs vehicle control group): −
Behavior of gene caused by administration of chemical substance, Gene No. 1494 (gene group (B), Unigene No. Rn.1430, mRNA vs vehicle control group): +
Behavior of gene caused by administration of chemical substance, Gene No. 2045 (gene group (B), Unigene No. Rn.19329, mRNA vs vehicle control group): +
Behavior of gene caused by administration of chemical substance, Gene No. 2203 (gene group (B), Unigene No. Rn.21240, mRNA vs vehicle control group): +
Behavior of gene caused by administration of chemical substance, Gene No. 533 (gene group (C), Unigene No. Rn.106184, mRNA vs vehicle control group): +
Behavior of gene caused by administration of chemical substance, Gene No. 725 (gene group (C), Unigene No. Rn.108075, mRNA vs vehicle control group): −
Behavior of gene caused by administration of chemical substance, Gene No. 1163 (gene group (C), Unigene No. Rn.11766, mRNA vs vehicle control group): −
Behavior of gene caused by administration of chemical substance, Gene No. 4973 (gene group (C), Unigene No. Rn.118529, mRNA vs vehicle control group): −
Behavior of gene caused by administration of chemical substance, Gene No. 4095 (gene group (C), Unigene No. Rn.119024, mRNA vs vehicle control group): −
Behavior of gene caused by administration of chemical substance, Gene No. 1334 [2]: −
Behavior of gene caused by administration of chemical substance, Gene No. 6620 [2]: −
Behavior of gene caused by administration of chemical substance, Gene No. 6303 (gene group (C), Unigene No. Rn.123063, mRNA vs vehicle control group): −
Behavior of gene caused by administration of chemical substance, Gene No. 5878 (gene group (C), Unigene No. Rn.143213, mRNA vs vehicle control group): −
Behavior of gene caused by administration of chemical substance, Gene No. 1131 (gene group (C), Unigene No. Rn.144946, mRNA vs vehicle control group): −
Behavior of gene caused by administration of chemical substance, Gene No. 1562 (gene group (C), Unigene No. Rn.14744, mRNA vs vehicle control group): −
Behavior of gene caused by administration of chemical substance, Gene No. 1741 (gene group (C), Unigene No. Rn.1647, mRNA vs vehicle control group): −
Behavior of gene caused by administration of chemical substance, Gene No. 893 (gene group (C), Unigene No. Rn.164817, mRNA vs vehicle control group): −
Behavior of gene caused by administration of chemical substance, Gene No. 6026 (gene group (C), Unigene No. Rn.167685, mRNA vs vehicle control group): −
Behavior of gene caused by administration of chemical substance, Gene No. 154 (gene group (C), Unigene No. Rn.185941, mRNA vs vehicle control group): −
Behavior of gene caused by administration of chemical substance, Gene No. 1993 (gene group (C), Unigene No. Rn.18728, mRNA vs vehicle control group): −
Behavior of gene caused by administration of chemical substance, Gene No. 813 (gene group (C), Unigene No. Rn.201760, mRNA vs vehicle control group): −
Behavior of gene caused by administration of chemical substance, Gene No. 2494 (gene group (C), Unigene No. Rn.23969, mRNA vs vehicle control group): −
Behavior of gene caused by administration of chemical substance, Gene No. 2546 (gene group (C), Unigene No. Rn.24561, mRNA vs vehicle control group): −
Behavior of gene caused by administration of chemical substance, Gene No. 3776 (gene group (C), Unigene No. Rn.43232, mRNA vs vehicle control group): −
Behavior of gene caused by administration of chemical substance, Gene No. 3929 (gene group (C), Unigene No. Rn.4620, mRNA vs vehicle control group): −
Behavior of gene caused by administration of chemical substance, Gene No. 1119 (gene group (C), Unigene No. Rn.9757, mRNA vs vehicle control group): −
Behavior of gene caused by administration of chemical substance, Gene No. 6742 (gene group (C), Unigene No. Rn.9779, mRNA vs vehicle control group): −
Behavior of gene caused by administration of chemical substance, Gene No. 5634 (gene group (C), Unigene No. Rn.9862, mRNA vs vehicle control group): −
Behavior of gene caused by administration of chemical substance, Gene No. 5726 (gene group (D), Unigene No. Rn.9939, mRNA vs vehicle control group): −

C1COCCO1 [TS027, 1,4-Dioxane]
Behavior of gene caused by administration of chemical substance, Gene No. 4846 ((A), Unigene Rn.144554, defined direction +, rat liver, oral once daily 28 days): +
Behavior of gene caused by administration of chemical substance, Gene No. 4218 ((A), Unigene Rn.167075, defined direction +, rat liver, oral once daily 28 days, significant = 1.5 times or more or 1/1.5 or less of control): +
Behavior of gene caused by administration of chemical substance, Gene No. 2026 ((A), Unigene Rn.167075, defined direction −, rat liver, oral once daily 28 days): +
Behavior of gene caused by administration of chemical substance, Gene No. 6182 ((A), Unigene Rn.5834, defined direction +, rat liver, oral once daily 28 days): +
Behavior of gene caused by administration of chemical substance, Gene No. 5600 ((A), Unigene Rn.9836, defined direction +, rat liver, oral once daily 28 days): +
Behavior of gene caused by administration of chemical substance, Gene No. 1494 ((B), Unigene Rn.1430, defined direction −, rat liver, oral once daily 28 days): +
Behavior of gene caused by administration of chemical substance, Gene No. 2045 ((B), Unigene Rn.19329, defined direction +, rat liver, oral once daily 28 days): −
Behavior of gene caused by administration of chemical substance, Gene No. 2203 ((B), Unigene Rn.21240, defined direction +, rat liver, oral once daily 28 days): −
Behavior of gene caused by administration of chemical substance, Gene No. 533 ((C), Unigene Rn.106184, defined direction +, rat liver, oral once daily 28 days): +
Behavior of gene caused by administration of chemical substance, Gene No. 725 ((C), Unigene Rn.108075, defined direction −, rat liver, oral once daily 28 days): −
Behavior of gene caused by administration of chemical substance, Gene No. 1163 ((C), Unigene Rn.11766, defined direction +, rat liver, oral once daily 28 days): −
Behavior of gene caused by administration of chemical substance, Gene No. 4973 ((C), Unigene Rn.118529, defined direction −, rat liver, oral once daily 28 days): −
Behavior of gene caused by administration of chemical substance, Gene No. 4095 ((C), Unigene Rn.119024, defined direction −, rat liver, oral once daily 28 days): −
Behavior of gene caused by administration of chemical substance, Gene No. 1334 [3]: −
Behavior of gene caused by administration of chemical substance, Gene No. 6620 [3]: −
Behavior of gene caused by administration of chemical substance, Gene No. 6303 ((C), Unigene Rn.123063, defined direction −, rat liver, oral once daily 28 days): −
Behavior of gene caused by administration of chemical substance, Gene No. 5878 ((C), Unigene Rn.143213, defined direction −, rat liver, oral once daily 28 days): −
Behavior of gene caused by administration of chemical substance, Gene No. 1131 ((C), Unigene Rn.144946, defined direction −, rat liver, oral once daily 28 days): −
Behavior of gene caused by administration of chemical substance, Gene No. 1562 ((C), Unigene Rn.14744, defined direction −, rat liver, oral once daily 28 days): +
Behavior of gene caused by administration of chemical substance, Gene No. 1741 ((C), Unigene Rn.1647, defined direction −, rat liver, oral once daily 28 days): +
Behavior of gene caused by administration of chemical substance, Gene No. 893 ((C), Unigene Rn.164817, defined direction +, rat liver, oral once daily 28 days): −
Behavior of gene caused by administration of chemical substance, Gene No. 6026 ((C), Unigene Rn.167685, defined direction −, rat liver, oral once daily 28 days): −
Behavior of gene caused by administration of chemical substance, Gene No. 154 ((C), Unigene Rn.185941, defined direction −, rat liver, oral once daily 28 days): +
Behavior of gene caused by administration of chemical substance, Gene No. 1993 ((C), Unigene Rn.18728, defined direction −, rat liver, oral once daily 28 days): +
Behavior of gene caused by administration of chemical substance, Gene No. 813 ((C), Unigene Rn.201760, defined direction +, rat liver, oral once daily 28 days): +
Behavior of gene caused by administration of chemical substance, Gene No. 2494 ((C), Unigene Rn.23969, defined direction +, rat liver, oral once daily 28 days): −
Behavior of gene caused by administration of chemical substance, Gene No. 2546 ((C), Unigene Rn.24561, defined direction −, rat liver, oral once daily 28 days): −
Behavior of gene caused by administration of chemical substance, Gene No. 3776 ((C), Unigene Rn.43232, defined direction −, rat liver, oral once daily 28 days): −
Behavior of gene caused by administration of chemical substance, Gene No. 3929 ((C), Unigene Rn.4620, defined direction +, rat liver, oral once daily 28 days): −
Behavior of gene caused by administration of chemical substance, Gene No. 1119 ((C), Unigene Rn.9757, defined direction +, rat liver, oral once daily 28 days): +
Behavior of gene caused by administration of chemical substance, Gene No. 6742 ((C), Unigene Rn.9779, defined direction +, rat liver, oral once daily 28 days): +
Behavior of gene caused by administration of chemical substance, Gene No. 5634 ((C), Unigene Rn.9862, defined direction −, rat liver, oral once daily 28 days): −
Behavior of gene caused by administration of chemical substance, Gene No. 5726 ((D), Unigene Rn.9939, defined direction −, rat liver, oral once daily 28 days): −
